Data: the supplement of paper PMC11451515

Assays:
Conditions in all cases: 48 h
SEM cells [1] = assay: cell viability relative to DMSO control; higher = less cytotoxic
Summary of the method: (§1)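 Cells were incubated for 48 h at 37°C before CellTiter-Glo One luminescence was read. The cells were NOMO1 or SEM (500 cells/well) or P12-Ichikawa (1000 cells/well) leukemia cells, adapted for at least four passages in each medium and seeded in 1536-well plates (5 μl). Dosing used library compounds in DMSO applied by pin over 11 threefold points, 47 μM to 0.79 nM. Viability is the per-plate percentage of DMSO wells, with cell-free wells as background.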

NOMO1 [2] = assay: as above
Summary of the method: as §1

P12-Ichikawa [3] = assay: as above
Summary of the method: as §1

SEM cells [4] = assay: AUC of viability dose-response curve (% viability x log10 dose units); higher = less sensitive
Summary of the method: (§2)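 Leukemia cells adapted to each medium were seeded in 1536-well plates (500 or 1000 cells/well). They were dosed with library compounds in DMSO at 11 threefold doses, 47 μM to 0.79 nM, for 48 h at 37°C. CellTiter-Glo One luminescence was normalised per plate to DMSO and cell-free wells. Area under the curve was integrated by trapezoidal rule over log10 doses on a four-parameter log-logistic fit; curves exceeding full viability were scaled and curves failing quality control removed.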

NOMO1 [5] = assay: as above
Summary of the method: as §2

P12-Ichikawa [6] = assay: as above
Summary of the method: as §2

CN(C)[C@@H](CCOc1cccc2ccccc12)c1ccccc1
cell viability [%]
Conditions | NOMO1 [2] | P12-Ichikawa [3] | SEM cells [1]
HPLM + 10% dialyzed FBS, 0.000781 µM | 110 | 112 | 139
HPLM + 10% dialyzed FBS, 0.00234 µM | 117 | 111 | 115
HPLM + 10% dialyzed FBS, 0.00702 µM | 129 | 113 | 125
HPLM + 10% dialyzed FBS, 0.0211 µM | 103 | 115 | 110
HPLM + 10% dialyzed FBS, 0.0632 µM | 124 | 115 | 119
HPLM + 10% dialyzed FBS, 0.19 µM | 114 | 112 | 120
HPLM + 10% dialyzed FBS, 0.569 µM | 110 | 109 | 100
HPLM + 10% dialyzed FBS, 1.71 µM | 97.5 | 104 | 108
HPLM + 10% dialyzed FBS, 5.12 µM | 86.4 | 101 | 111
HPLM + 10% dialyzed FBS, 15.4 µM | 106 | 104 | 107
HPLM + 10% dialyzed FBS, 46.1 µM | 70.6 | 88.5 | 65
RPMI 5 mM glucose + 10% FBS, 0.000781 µM | 105 | 116 | 120
RPMI 5 mM glucose + 10% FBS, 0.00234 µM | 112 | 118 | 122
RPMI 5 mM glucose + 10% FBS, 0.00702 µM | 106 | 131 | 122
RPMI 5 mM glucose + 10% FBS, 0.0211 µM | 109 | 122 | 127
RPMI 5 mM glucose + 10% FBS, 0.0632 µM | 119 | 113 | 132
RPMI 5 mM glucose + 10% FBS, 0.19 µM | 106 | 116 | 131
RPMI 5 mM glucose + 10% FBS, 0.569 µM | 110 | 115 | 103
RPMI 5 mM glucose + 10% FBS, 1.71 µM | 113 | 101 | 118
RPMI 5 mM glucose + 10% FBS, 5.12 µM | 99.8 | 92.2 | 95.7
RPMI 5 mM glucose + 10% FBS, 15.4 µM | 98.4 | 110 | 114
RPMI 5 mM glucose + 10% FBS, 46.1 µM | 68.9 | 73.1 | 71.2
RPMI 5 mM glucose + 10% dialyzed FBS, 0.000781 µM | 113 | 111 | 101
RPMI 5 mM glucose + 10% dialyzed FBS, 0.00234 µM | 114 | 102 | 121
RPMI 5 mM glucose + 10% dialyzed FBS, 0.00702 µM | 114 | 114 | 117
RPMI 5 mM glucose + 10% dialyzed FBS, 0.0211 µM | 111 | 110 | 127
RPMI 5 mM glucose + 10% dialyzed FBS, 0.0632 µM | 106 | 115 | 131
RPMI 5 mM glucose + 10% dialyzed FBS, 0.19 µM | 99 | 105 | 129
RPMI 5 mM glucose + 10% dialyzed FBS, 0.569 µM | 119 | 111 | 91.5
RPMI 5 mM glucose + 10% dialyzed FBS, 1.71 µM | 113 | 108 | 132
RPMI 5 mM glucose + 10% dialyzed FBS, 5.12 µM | 114 | 98.2 | 101
RPMI 5 mM glucose + 10% dialyzed FBS, 15.4 µM | 92.7 | 106 | 136
RPMI 5 mM glucose + 10% dialyzed FBS, 46.1 µM | 52.1 | 67.1 | 81

AUC of viability dose-response curve
Conditions | NOMO1 [5] | P12-Ichikawa [6] | SEM cells [4]
HPLM + 10% dialyzed FBS | 433 | 455 | 400
RPMI 5 mM glucose + 10% FBS | 461 | 433 | 444
RPMI 5 mM glucose + 10% dialyzed FBS | 456 | 467 | 469

Cc1nc(N)ncc1-c1nc(N2CCOCC2)c2sc(C(C)(C)O)cc2n1
cell viability [%]
Conditions | NOMO1 [2] | P12-Ichikawa [3] | SEM cells [1]
HPLM + 10% dialyzed FBS, 0.000781 µM | – | 125 | 97.7
HPLM + 10% dialyzed FBS, 0.00234 µM | – | 122 | 114
HPLM + 10% dialyzed FBS, 0.00702 µM | – | 119 | 118
HPLM + 10% dialyzed FBS, 0.0211 µM | – | 113 | 118
HPLM + 10% dialyzed FBS, 0.0632 µM | – | 83 | 113
HPLM + 10% dialyzed FBS, 0.19 µM | – | 10.9 | 40.1
HPLM + 10% dialyzed FBS, 0.569 µM | – | 7.79 | 14.2
HPLM + 10% dialyzed FBS, 1.71 µM | – | 5.43 | 9.64
HPLM + 10% dialyzed FBS, 5.12 µM | – | 4.61 | 8.13
HPLM + 10% dialyzed FBS, 15.4 µM | – | 4.97 | 7.64
HPLM + 10% dialyzed FBS, 46.1 µM | – | 4.1 | 5.09
RPMI 5 mM glucose + 10% FBS, 0.000781 µM | 109 | 116 | 92.7
RPMI 5 mM glucose + 10% FBS, 0.00234 µM | 118 | 122 | 85.3
RPMI 5 mM glucose + 10% FBS, 0.00702 µM | 113 | 114 | 78.2
RPMI 5 mM glucose + 10% FBS, 0.0211 µM | 117 | 120 | 74.2
RPMI 5 mM glucose + 10% FBS, 0.0632 µM | 106 | 116 | 13.6
RPMI 5 mM glucose + 10% FBS, 0.19 µM | 64 | 121 | 11.7
RPMI 5 mM glucose + 10% FBS, 0.569 µM | 18.7 | 18.5 | 9.07
RPMI 5 mM glucose + 10% FBS, 1.71 µM | 18.5 | 7.92 | 7.73
RPMI 5 mM glucose + 10% FBS, 5.12 µM | 10.5 | 6.16 | 6.03
RPMI 5 mM glucose + 10% FBS, 15.4 µM | 9.97 | 5.72 | 5.59
RPMI 5 mM glucose + 10% FBS, 46.1 µM | 9.89 | 5.39 | 4.95
RPMI 5 mM glucose + 10% dialyzed FBS, 0.000781 µM | 114 | 124 | 115
RPMI 5 mM glucose + 10% dialyzed FBS, 0.00234 µM | 113 | 118 | 130
RPMI 5 mM glucose + 10% dialyzed FBS, 0.00702 µM | 94.2 | 125 | 112
RPMI 5 mM glucose + 10% dialyzed FBS, 0.0211 µM | 111 | 120 | 122
RPMI 5 mM glucose + 10% dialyzed FBS, 0.0632 µM | 89.5 | 122 | 79.5
RPMI 5 mM glucose + 10% dialyzed FBS, 0.19 µM | 86.4 | 118 | 17.6
RPMI 5 mM glucose + 10% dialyzed FBS, 0.569 µM | 28.1 | 13.2 | 13
RPMI 5 mM glucose + 10% dialyzed FBS, 1.71 µM | 22.6 | 8.68 | 9.39
RPMI 5 mM glucose + 10% dialyzed FBS, 5.12 µM | 13.3 | 7.11 | 7.85
RPMI 5 mM glucose + 10% dialyzed FBS, 15.4 µM | 11.4 | 6.92 | 6.82
RPMI 5 mM glucose + 10% dialyzed FBS, 46.1 µM | 7.33 | 5.85 | 5.41

AUC of viability dose-response curve
Conditions | NOMO1 [5] | P12-Ichikawa [6] | SEM cells [4]
HPLM + 10% dialyzed FBS | 204 | 213 | 249
RPMI 5 mM glucose + 10% FBS | 264 | 279 | 163
RPMI 5 mM glucose + 10% dialyzed FBS | 285 | 276 | 220

C[N]1C=C(C=N1)C2=CC=C3N=CC\4=C(N(C(=O)\C=C4)C5=CC6=C(CCN6C(=O)C=C)C=C5)C3=C2
cell viability [%]
Conditions | NOMO1 [2] | P12-Ichikawa [3] | SEM cells [1]
HPLM + 10% dialyzed FBS, 0.000781 µM | – | 106 | 118
HPLM + 10% dialyzed FBS, 0.00234 µM | – | 121 | 114
HPLM + 10% dialyzed FBS, 0.00702 µM | – | 109 | 96.1
HPLM + 10% dialyzed FBS, 0.0211 µM | – | 114 | 120
HPLM + 10% dialyzed FBS, 0.0632 µM | – | 112 | 93.9
HPLM + 10% dialyzed FBS, 0.19 µM | – | 115 | 110
HPLM + 10% dialyzed FBS, 0.569 µM | – | 105 | 102
HPLM + 10% dialyzed FBS, 1.71 µM | – | 95.4 | 82.1
HPLM + 10% dialyzed FBS, 5.12 µM | – | 79.9 | 27.6
HPLM + 10% dialyzed FBS, 15.4 µM | – | 20.8 | 4.07
HPLM + 10% dialyzed FBS, 46.1 µM | – | 20.4 | 4.13
RPMI 5 mM glucose + 10% FBS, 0.000781 µM | 100 | 123 | 104
RPMI 5 mM glucose + 10% FBS, 0.00234 µM | 104 | 112 | 105
RPMI 5 mM glucose + 10% FBS, 0.00702 µM | 108 | 118 | 90.4
RPMI 5 mM glucose + 10% FBS, 0.0211 µM | 95.2 | 114 | 110
RPMI 5 mM glucose + 10% FBS, 0.0632 µM | 102 | 110 | 117
RPMI 5 mM glucose + 10% FBS, 0.19 µM | 109 | 113 | 111
RPMI 5 mM glucose + 10% FBS, 0.569 µM | 95.7 | 111 | 118
RPMI 5 mM glucose + 10% FBS, 1.71 µM | 88.8 | 98 | 80.5
RPMI 5 mM glucose + 10% FBS, 5.12 µM | 69.3 | 74.6 | 26.6
RPMI 5 mM glucose + 10% FBS, 15.4 µM | 13.5 | 7.13 | 2.7
RPMI 5 mM glucose + 10% FBS, 46.1 µM | 9.25 | 5.07 | 3.13
RPMI 5 mM glucose + 10% dialyzed FBS, 0.000781 µM | 105 | 116 | –
RPMI 5 mM glucose + 10% dialyzed FBS, 0.00234 µM | 108 | 128 | –
RPMI 5 mM glucose + 10% dialyzed FBS, 0.00702 µM | 109 | 117 | –
RPMI 5 mM glucose + 10% dialyzed FBS, 0.0211 µM | 119 | 120 | –
RPMI 5 mM glucose + 10% dialyzed FBS, 0.0632 µM | 97.2 | 115 | –
RPMI 5 mM glucose + 10% dialyzed FBS, 0.19 µM | 107 | 126 | –
RPMI 5 mM glucose + 10% dialyzed FBS, 0.569 µM | 96 | 119 | –
RPMI 5 mM glucose + 10% dialyzed FBS, 1.71 µM | 90.6 | 98.4 | –
RPMI 5 mM glucose + 10% dialyzed FBS, 5.12 µM | 47.4 | 82.2 | –
RPMI 5 mM glucose + 10% dialyzed FBS, 15.4 µM | 6.23 | 6.85 | –
RPMI 5 mM glucose + 10% dialyzed FBS, 46.1 µM | 5.9 | 4.97 | –

AUC of viability dose-response curve
Conditions | NOMO1 [5] | P12-Ichikawa [6] | SEM cells [4]
HPLM + 10% dialyzed FBS | 359 | 404 | 359
RPMI 5 mM glucose + 10% FBS | 396 | 391 | 360
RPMI 5 mM glucose + 10% dialyzed FBS | 375 | 393 | 353
